In patent US20250017881A1, “Fatty acids for ketosis control” (N.V. Nutricia, priority 2022, published 2025):
“Also recorded” adds a separate entry of the source.

Tests used:
Format in all cases: cell-based
[1] = test system: mouse liver cells (Hepa1-6 cell line); experiment: Ketone production (beta-hydroxybutyrate in medium) by mouse liver cells; settings: for beta-hydroxybutyrate production, fatty acid provided alone: provided alone to liver cells at 1 μM, 5 μM and 10 μM, 6 h ketogenic phase; for beta-hydroxybutyrate production when combined with 100 μM OA, versus 100 μM OA alone: test fatty acid 1 μM to 10 μM (1, 5, 10 μM) + 100 μM oleic acid; for production of ketones from 100 μM fatty acid blend (K-one): test fatty acid within 1 μM to 10 μM + 100 μM fatty acid blend; for ketone production in the absence of a ketogenic fat blend: 5 μM each, alone or in combination
Protocol: An assay to measure ketone production in mouse liver cells (Hepa1-6 cell line) was used wherein cells were first grown to a monolayer (growth phase), then exposed to starvation to deplete cellular lipid stores and subsequently brought into a ketogenic phase wherein cells were cultured in presence of oleic acid or a ketogenic diet fat blend with or without the presence of one of C2, C4, C6 fatty acids, citrate and nicotinamide riboside (herein also referred to as C2, C4, C6, citrate and NR). The ketone body production was subsequently determined by measurement of beta-hydroxybutyrate in the cell culture medium according to the details set out below:
Starvation phase: At the end of the growth phase the cells formed a monolayer. The medium was exchanged for DMEM containing 1 mM glucose and antibiotics (1% penicillin & streptomycin) but no FBS. The medium was further supplemented with L-carnitine (a required co-factor for the uptake of fatty acids into the mitochondria, where fatty acids are turned into ketones). The cells were incubated in this medium for 24 hours. During this time, the cells were vastly deprived of glucose, lipids and hormones contained in FBS, forcing them to consume and empty their lipid stores. […] Moreover, the starvation phase is thought to induce specific metabolic changes that maximize the production of ketones.
Ketogenic phase: At the end of the starvation phase, the medium was exchanged for Krebs-Henseleit buffer (KHB) supplemented with the test nutrients (single fatty acids and fatty acid blend shown in table 1) and L-carnitine.
The fatty acid blend is contained in a similar fatty acid composition to the one used in a ketogenic diet (K-one). The content of every fatty acid in the blend is given as the molar ratio to Oleic acid (OA), whose molar content is set to 1. Dilutions of this blend were used to determine the dose response curve in FIGS. 1B and 1D. C2 and C4 are not included in the blend.
KHB is composed of salts and bicarbonate as a chemical buffer to maintain the osmotic pressure and acidity (pH) at physiological levels. Medium and long chain fatty acids are coupled to bovine serum albumin prior to the assay to make them soluble in KHB and allow their efficient uptake by the cells. The coupling is physiological since in humans, medium and long chain fatty acids are also normally coupled to albumin for transport in the blood circulation. Short chain fatty acids (C2, C4) were not coupled to albumin in the assay since they are water-soluble and circulate freely in humans. The cells were incubated for 6 hours at 37° C. During this time, they produce ketones from the test nutrients with little to no interference from other nutrients and secrete β-hydroxybutyrate (β-Hb) into the medium.
β-Hb measurements: At the end of the ketogenic phase, the whole medium was collected and dried by vacuum centrifugation for 20 hours at 21° C. The dry pellet was resuspended in a small volume of assay buffer to yield a 10-20-fold higher β-Hb concentration than in the medium. The samples were deproteinized using spin columns to measure the free unbound fraction of R-Hb. […] The Fluorescence was measured on a fluorescence microplate reader and is directly proportional to the β-Hb concentration in the sample within a range of 0.1 μM to 50 μM β-Hb.

[2] = test system: mouse liver cells (Hepa1-6 cell line); experiment: Propionate viability assay (ATP content, bioluminescence)
Protocol: Starvation phase: At the end of the growth phase the cells formed a monolayer. The medium was exchanged for DMEM containing 1 mM glucose and antibiotics (1% penicillin & streptomycin) but no FBS. The medium was further supplemented with L-carnitine (a required co-factor for the uptake of fatty acids into the mitochondria, where fatty acids are turned into ketones). […] The cells were incubated in this medium for 24 hours.

[3] = test system: NAD+ depleted mouse liver cells (Hepa1-6 cells); experiment: NAD+ replenishment of NAD+ depleted liver cells by NAD+ precursors
Protocol: An assay was developed to measure NAD+ replenishment of NAD+ depleted mouse liver cells (Hepa1-6 cells) by NAD+ precursors under ketogenic diet-like conditions. In this assay, mouse liver cells were starved of glucose and depleted of NAD+ through incubation in a very low glucose (1 mM) medium free of vitamin B3, Trp and FBS and supplemented with 10 nM of an NAD+ depleting drug called FK866. Thereafter, the cells were fed with NR or NAM or Niacin (provided as a combination of NAM and nicotinic acid in a 1:1 molar ratio) or Trp to replenish the cells with NAD+. At the end of the supplementation phase, the cells were scraped and extracted using the NAD+ extraction buffer of the EnzyChrom™ NAD/NADH Assay Kit from BioAssay Systems. The NAD+ content of the cells was determined with the same kit following the manufacturer's manual. The NAD+ measurement is based on a […] reaction, in which NAD+ is reduced to NADH, which in turn reduces a formazan (MTT) reagent. The intensity of the reduced product color, measured at 565 nm, is proportional to the NAD+ concentration in the sample. This assay is highly specific for NAD+ and has minimal interference (<1%) by NADP+ or NADPH.

[4] = test system: NAD+ depleted mouse liver cells; experiment: Ketone production of NAD+ depleted liver cells replenished with NR; settings: NR 10 μM
Protocol: To measure the impact of replenishing NAD+ in liver cells with NR on ketone production, mouse liver cells were nutrient-deprived in medium containing low (1 mM) glucose and L-carnitine, but no fetal bovine serum, and no NAD+ precursors in the form of vitamin B3 (Niacin, NA, NAM) or Trp, Concomitantly the cells were treated with the NAD+ depleting drug FK866. These conditions created ketogenic diet like nutrient conditions and depleted the cells of NAD+. After 18 hours of incubation, FK866 was removed from the medium and a concentration range of NR was added to replenish NAD+ in liver cells. After 24 hours, the cells were switched to Krebs-Henseleit buffer (KHB) containing L-carnitine and a concentration range (1 μM to 100 μM) of oleic acid, a long chain fatty acid, for 6 hours to induce and measure the production and secretion of b-hydroxybutyrate (PHB) into the medium.

CC(=O)O [C2, acetic acid]
beta-hydroxybutyrate production when combined with 100 μM fatty acid blend, versus blend alone ([1]; 1 μM or 10 μM C2 + 100 μM fatty acid blend (K-one)): slightly greater production of PHb | beta-hydroxybutyrate production, fatty acid provided alone [1]: does not yield any ketones | beta-hydroxybutyrate production, fatty acid provided alone ([1]; listed as 02): virtually no bHB | beta-hydroxybutyrate production when combined with 100 μM OA, versus 100 μM OA alone [1]: more PHb than 100 μM OA alone; also recorded: enhances the production of ketones | production of ketones from 100 μM fatty acid blend (K-one) [1]: enhances the production of ketones

CCC(=O)O [C3, propionic acid]
cytotoxicity, long-term assessment ([2]; 300 uM to 10 mM C3, 24-hour starvation plus 6-hour ketogenic phase): evident for the entire dose-range | cytotoxicity, short-term exposure ([2]; 10 mM C3, 6-hours of exposure (ketogenic phase)): Cytotoxicity was already noted | cytotoxicity (ATP content) over the concentration range ([2]; C3 to 10 mM as printed): dose-dependent increase in cytotoxicity | reduction of beta-hydroxybutyrate yield compared to 100 μM fatty acid blend alone ([1]; 1 μM, 5 μM and 10 μM C3 + 100 μM fatty acid blend): more than 60% | beta-hydroxybutyrate production, fatty acid provided alone [1]: yielded no PHb | beta-hydroxybutyrate production when combined with 100 μM OA, versus 100 μM OA alone [1]: less PHb than 100 μM OA alone; also recorded: inhibits the top-level production of ketones | production of ketones from 100 μM fatty acid blend (K-one) [1]: dose-dependent manner; also recorded: inhibits the top-level production of ketones

CCCC(=O)O [C4, butyric acid]
ketone production in the absence of a ketogenic fat blend ([1]; no fat blend): hardly any ketones | beta-hydroxybutyrate production when combined with 100 μM fatty acid blend, versus blend alone ([1]; 10 μM C4 + 100 μM fatty acid blend (K-one)): more βHb than providing the 100 μM fatty acid blend alone | ketone production from a concentration range of fatty acid blend ([1]; fixed 10 μM C4 + 1 μM to 100 μM fatty acid blend (K-one), versus blend without C4): increasingly enhanced the production of ketones | beta-hydroxybutyrate production, fatty acid provided alone [1]: hardly yielded any PHb | beta-hydroxybutyrate production when combined with 100 μM OA, versus 100 μM OA alone [1]: more PHb than providing 100 μM OA alone; also recorded: potentiates the production of ketones | production of ketones from 100 μM fatty acid blend (K-one) [1]: potentiates the production of ketones

CCCCCC(=O)O [C6, caproic acid]
ketone production in the absence of a ketogenic fat blend ([1]; no fat blend): hardly any ketones | concentration above which the fatty acid starts to be turned as a substrate into beta-hydroxybutyrate ([1]; dose-response curve of the fatty acid alone, 1 μM to 100 μM): above 10 μM | beta-hydroxybutyrate production when combined with 100 μM OA, versus 100 μM OA alone [1]: potentiates the production of ketones | production of ketones from 100 μM fatty acid blend (K-one) [1]: potentiates the production of ketones

O=C(/C=C/c1cccnc1)NCCCCC1CCN(C(=O)c2ccccc2)CC1 [FK866, reference compound]
depletion of NAD+ relative to baseline NAD+ content of untreated liver cells ([3]; 10 nM FK866, very low glucose medium): ~70%

NC(=O)c1ccc[n+]([C@@H]2O[C@H](CO)[C@@H](O)[C@H]2O)c1 [NR, nicotinamide riboside]
increase of NAD+ content versus equimolar amounts of NAM or Niacin ([3]; 1 mM): significantly greater extent | increase of NAD+ content versus equimolar amounts of Niacin ([3]; lower concentrations below 150 μM): greater extent | NAD+ content of NAD+ depleted liver cells after provision ([3]; within 24 hours of treatment, concentration range): dose-dependently replenishes NAD+ content to and above this baseline | top-level production of ketones ([4]; 150 μM and 1000 μM for 24 h, then oleic acid 1 μM to 100 μM for 6 h): increased | NAD+ content ([4]; 150 μM and 1000 μM, ketogenic diet like nutrient conditions): increased

CCCCCCCC/C=C\CCCCCCCC(=O)O [OA, oleic acid, reference compound]
concentration at which top-level (maximized) ketone production is achieved ([1]; ketogenic substrate alone, dose-response curve): 100 µM

O=C(O)CC(O)(CC(=O)O)C(=O)O [citrate]
increase of ketone production from the fat blend ([1]; 200 μM to 1000 μM citrate + 100 μM fatty acid blend (K-one)): 10-20% | ketone production, citrate provided alone ([1]; citrate alone, no fat blend): yielded no ketones
